The record followed here is patent US9322034B2, “Compositions and methods for detecting and modulating cell death by a translation regulated gene expression system” (Wayne State University, priority 2007, dated 2016).

Where only a bound is given, the exact number is not on record here.

Common to all, as to type: cell-based, human
Assay [1] relates to HEK293 TRplp-fLUC and TRdm-fLUC subclones. Nature of the assay: Cytotoxicity assay by immunofluorescence of fLUC protein. Conditions: 12 hr. The text has this:
To examine TR-mediated translation from the TR-fLUC cassettes, the translated fLUC protein requires immunolabeling with fluorescent antibodies. In this study, HEK293 cells transformed with the CMV-fLUC, TRplp-fLUC or TRdm-fLUC expression cassettes are visualized following immunodetection of the fLUC protein using a primary anti-fLUC antibody (Sigma) and a species-specific rhodamine-labeled secondary antibody (Kirkegaard and Perry Laboratories, Inc.). DAPI labeling of nuclear DNA is a well known procedure in the art and was used to label nuclei.
Forty hours prior to toxin exposure, 300,000 cells (HEK293, HEK293 CMV-fLUC, HEK293 TRplp-fLUC subclone #3, HEK293 TRplp-fLUC subclone #17, HEK293 TRdm-fLUC subclone #12, or HEK293 TRdm, fLUC subclone #45) were plated on flame sterilized glass coverslips in a 12-well tray. Cells are cultured in complete DMEM medium. Fresh medium supplemented with 6.7 micromolar calcium ionophore A23187 is applied and slides collected at 12 hr. […] After this, the coverslips are washed in 1×PBS, labeled with DAPI (30 sec, RT), washed in 1×PBS, and mounted for fluorescence microscopy.
In untreated cell cultures, the frequency of fLUC-positive cells ranged from 2.4-7.2%, which is 1-3 times higher than the normal frequency of nonviable cells, as determined by Trypan blue staining. […]

In assay [2] the test system is HEK293 TRplp-fLUC subclone #3 and HEK293 TRdm-fLUC subclone #45. Nature of the assay: Microplate reader temporal response, lysed cell luciferase assay. The note with it: 6.7 micromolar. The method, then:
For this example, HEK293 cells expressing the TRplp-EYFP, TRdm-EYFP, TRplp fLUC and TRdm-fLUC expression cassettes are evaluated using a microplate reader. To quantitate the TR translational response, 24,000 cells are plated in a 96-well microtiter plates and allowed to grow for about 40 hr to achieve the proper cell density prior to incubation with a toxic agent. Each well is cultured with complete DMEM medium containing either no toxin or a defined concentration of toxin and incubated at 37 C for specific time periods. At that time, fluorescence or chemiluminescence on a FLUOstar Optima (BMG Labtech) microplate reader is used measure TR-ORF response.
For a lysed cell assay, cells are cultured as above, but in regular flat bottom 96-well trays. After toxin incubation, the 96-well plates are centrifuged as above. The media is removed, replaced with 50 microliters of Cell Lysis Buffer (25 mM Tris-phosphate (pH7.8), 10% glycerol, 1% TritonX-100, 1 mg/ml BSA, 2 mM EGTA and 2 mM DTT) and incubated for 10 min at RT. Cell lysis is verified using a phase contrast microscope, and the lysates transferred to a white bottom 96-well tray. Luminescence is developed by injection of 5 microliters of D-luciferin solution dissolved in Reaction Buffer (25 mM Glycylglycine (pH 7.8), 15 mM MgSO4, 4 mM EDTA, 15 mM Potassium phosphate, 1 mM DTT, 1 mM Coenzyme A, 6.7 mM ATP and 3.35 mM D-luciferin). After 4 sec with shaking, luminescence values were measured using the lens filter at gains of 2000-3000.
Temporal response assays are used to define the timing of TR-regulated translation during incubation in toxic levels of a cytotoxic agent. HEK293 TRplp-fLUC subclone #3 and HEK293 TRdm-fLUC subclone #45 are cultured in 6.7 micromolar calcium ionophore A23187 for various times (0 hr, 1.5 hr, 3 hr, 4.5 hr, 6 hr, 7.5 hr, 9 hr, 10.5 hr, 12 hr and 13.5 hr) and analyzed as described above using a lysed cell luciferase assay (FIG. 11).

The test system of assay [3] is HT1080 cells transduced with rBAC-TRdm-EYFP virions. Nature of the assay: Cytotoxic event assay using rBAC-TRdm-EYFP gene delivery, fluorescence microscopy. The note with it: 5 μM. The method, then:
HT1080 cells are plated in 6-well trays and allowed to grow until 70-80% confluent. Two sets of HT1080 cells are transduced with rBAC-TRdm-EYFP virions (multiplicity of infection of 10 pfu/cell and 25 pfu/cell) for 24 hr and then treated with medium containing 5 μM calcium ionophore A23187 for 13.5 hr and 23 hr. At this time, untreated and treated cells are processed and examined by fluorescence microscopic analysis as described above.

Consider `CNc1ccc2oc(C[C@H]3O[C@@]4(CC[C@H]3C)O[C@H]([C@H](C)C(=O)c3ccc[nH]3)[C@H](C)C[C@H]4C)nc2c1C(=O)O` [calcium ionophore A23187], for which the “increase in number of fLUC positive cells compared to untreated samples” value in assay [1] (HEK293 TRdm-fLUC subclone #12, 6.7 micromolar) is listed as 3640%; in assay [1] (HEK293 TRdm-fLUC subclone #45, 6.7 micromolar), 1440%. The “time up to which translational activity increases linearly, values adjusted to HEK293 CMV-fLUC cells” value in assay [2] (ratio to CMV-fLUC) is 12 h. Besides, the “time post-incubation by which significant TR-specific translation is detected” value in assay [2] (raw luciferase numbers) was no more than 1.5 h. For the same molecule, the “time post-incubation up to which translational activity increases linearly, then plateau” value in assay [2] (raw luciferase numbers) came to 9 h. Besides, the “increase in EYFP positive cells compared to infected but untreated cell samples” value stood at 3344% in assay [3] (13.5 hr, 10 pfu/cell); 4925% in assay [3] (13.5 hr, 25 pfu/cell); 725% in assay [3] (23 hr, 10 pfu/cell); 875% in assay [3] (23 hr, 25 pfu/cell). In addition, the “decrease in the number of attached cells” value in assay [3] (23 hr) is “more than 50%”.
